Measured values as given in patent US4105761A, “Anabolisant-androgenic compounds” (Roussel Uclaf, priority 1974, dated 1978).

Columns and labels:
[1] = system: castrated male rats (levator ani, seminal vesicules, prostate); assay: Anabolisant-androgenic activity, Hershberger technique slightly modified (castrated rats, oral); assay type: in vivo, rat; conditions: for Levator ani weight / Prostate weight / Seminal vesicules weight: oral, 10 days
Experimental: This test was effected using the technique of Hershberger [Proc. Soc. Exp. Biol. Med., Vol. 83 (1953), p. 175] slightly modified and groups of 5 male rats 19 to 21 days old were castrated and then were treated daily for 10 days by oral administration of the test product in a solution containing 0.5 ml of olive oil and 0.5 ml of water containing 0.25% of carboxymethylcellulose. The animals were killed 24 hours after the last treatment and the prostate and seminal vesicules were removed and fixed for 24 hours in a solution of 10% formol in physiological serum. They were then dissected and weighed and the levator ani was removed and weighed in a fresh state. The increase in the weight of the genital organs indicate the anabolisant-androgenic activity of 17β-n-amyloxy-Δ^4,9,11 -estratriene-3-one and the results are reported in Table I and compared to the results of other trienic steroids.

hepatic cells = assay: Hepatonocivity study (rabbit, oral, 4 consecutive days); assay type: in vivo
Experimental: 17β-n-amyloxy-Δ^4,9,11 -estratriene-3-one was orally administered for 4 consecutive days to a rabbit at a dose of 10 mg/kg and the animal was killed on the 5th day. […] (BSP).

[2] = 10 mg/kg orally, 4 consecutive days

| SMILES | Levator ani weight ([1]; daily dose 100 μg/rat) [mg] | Prostate weight ([1]; daily dose 100 μg/rat) [mg] | Seminal vesicules weight ([1]; daily dose 100 μg/rat) [mg] | Levator ani weight ([1]; daily dose 10 μg/rat) [mg] | Prostate weight ([1]; daily dose 10 μg/rat) [mg] | Seminal vesicules weight ([1]; daily dose 10 μg/rat) [mg] | Levator ani weight ([1]; daily dose 1000 μg/rat) [mg] | Prostate weight ([1]; daily dose 1000 μg/rat) [mg] | Seminal vesicules weight ([1]; daily dose 1000 μg/rat) [mg] | also measured |
| --- | --- | --- | --- | --- | --- | --- | --- | --- | --- | --- |
| C=C(C)CO[C@H]1CC[C@H]2[C@@H]3CCC4=CC(=O)CCC4=C3C=C[C@]12C [17β-(2'-methyl)allyloxy-Δ^4,9,11 estratriene 3-one] | 23.5 | 39.0 | 16.7 | – | – | – | – | – | – | Levator ani weight ([1]; daily dose 20 μg/rat): 29.0 mg; Prostate weight ([1]; daily dose 20 μg/rat): 34.1 mg; Seminal vesicules weight ([1]; daily dose 20 μg/rat): 17.0 mg; Levator ani weight ([1]; daily dose 500 μg/rat): 37.5 mg; Prostate weight ([1]; daily dose 500 μg/rat): 66.2 mg; Seminal vesicules weight ([1]; daily dose 500 μg/rat): 52.3 mg |
| C[C@]12C=CC3=C4CCC(=O)C=C4CC[C@H]3[C@@H]1CC[C@@H]2OCC1CC1 [17β-(cyclopropyl)-methoxy-Δ^4,9,11-estratriene-3-one] | 33.3 | 41.7 | 26.4 | 20.7 | 18.4 | 9.9 | 49.2 | 88.7 | 97.1 | – |
| CC(C)=CCO[C@H]1CC[C@H]2[C@@H]3CCC4=CC(=O)CCC4=C3C=C[C@]12C [17β-(3'-methyl)but-2'-enyloxy Δ^4,9,11-estratriene-3-one] | 49.2 | 39.0 | 36.7 | 28.7 | 12.8 | 8.2 | – | – | – | – |
| CC(C)CO[C@H]1CC[C@H]2[C@@H]3CCC4=CC(=O)CCC4=C3C=C[C@]12C [17β-isobutyloxy-Δ^4,9,11-estratriene-3-one] | 41.9 | 46.4 | 28.7 | 24.6 | 13.5 | 9.2 | 44.0 | 104.8 | 116.0 | – |
| CCCCCO[C@H]1CC[C@H]2[C@@H]3CCC4=CC(=O)CCC4=C3C=C[C@]12C [17β-n-amyloxy-Δ^4,9,11-estratriene-3-one] | – | – | – | 28.4 | 27.7 | 13.1 | – | – | – | anabolisant-androgenic activity compared to other Δ^4,9,11 -estratrienes ([1]; administered orally, rats): clearly much superior; Levator ani weight ([1]; daily dose 30 μg/rat): 47.1 mg; Prostate weight ([1]; daily dose 30 μg/rat): 44.7 mg; Seminal vesicules weight ([1]; daily dose 30 μg/rat): 23.5 mg; Levator ani weight ([1]; daily dose 90 μg/rat): 53.1 mg; Prostate weight ([1]; daily dose 90 μg/rat): 79.0 mg; Seminal vesicules weight ([1]; daily dose 90 μg/rat): 64.0 mg; tolerance by the hepatic cells (hepatic cells; 5 mg/kg): well tolerated; rate of oxalacetic transaminase (SGOT) (hepatic cells; [2]): increase; rate of retention of bromosulfonephtalein (BSP) (hepatic cells; [2]): without having caused a change |
| CCCO[C@H]1CC[C@H]2[C@@H]3CCC4=CC(=O)CCC4=C3C=C[C@]12C [17β-n-propyloxy-Δ^4,9,11-estratriene 3-one] | 25.3 | 33.5 | 14.9 | – | – | – | 38.7 | 74.4 | 66.8 | – |
